Experimental data taken from ChEMBL document CHEMBL1144671, “Non-ATP competitive glycogen synthase kinase 3beta (GSK-3beta) inhibitors: study of structural requirements for thiadiazolidinone derivatives” (Bioorg Med Chem, 2008).

Experiment: Inhibition of rabbit recombinant GSK3-beta
Design: species or system Oryctolagus cuniculus

SMILES | IC50 [µM]
Cn1sc(Nc2ccccc2)nc1=O | 12.5
Cn1s/c(=N\Cc2ccccc2)n(Cc2ccccc2)c1=O | > 100
Cn1s/c(=N\C(=O)c2ccccc2)n(CC#N)c1=O | > 100
N#CCn1s/c(=N\C(=O)c2ccccc2)n(CC#N)c1=O | > 100
Cn1sc(NC(=O)c2ccccc2)nc1=O | > 100
N#CCn1c(=O)[nH]s/c1=N\C(=O)c1ccccc1 | > 100
Cn1s/c(=N\C(=O)c2ccccc2)n(C)c1=O | > 100
O=C(/N=c1\sn(Cc2ccccc2)c(=O)n1Cc1ccccc1)c1ccccc1 | > 100
Cn1sc(Nc2ccc(Br)cc2)nc1=O | 15
Nc1nc(=O)[nH]s1 | 25
CCOC(=O)Cn1c(=O)n(C)s/c1=N\Cc1ccccc1 | > 100
O=C(/N=c1\s[nH]c(=O)n1Cc1ccccc1)c1ccccc1 | > 100
Cn1s/c(=N\c2ccc(Br)cc2)n(C)c1=O | > 100
CCOC(=O)Cn1c(=O)n(Cc2ccccc2)s/c1=N\C(=O)c1ccccc1 | > 100
Cn1s/c(=N\C(=O)c2ccccc2)n(Cc2ccccc2)c1=O | > 100
Cc1ccccc1-c1nsc(=O)[nH]1 | > 100
c1ccc(-c2nsc(-c3ccccc3)n2)cc1 | > 100
Cn1s/c(=N\C(=O)c2ccccc2)n(CC(=O)O)c1=O | > 100
CCOC(=O)Cn1c(=O)n(C)s/c1=N\C(=O)c1ccccc1 | > 100
O=C(O)Cn1c(=O)n(Cc2ccccc2)s/c1=N\C(=O)c1ccccc1 | > 100
O=C(Nc1nc(=O)n(Cc2ccccc2)s1)c1ccccc1 | > 100
O=c1nc(NCc2ccccc2)sn1Cc1ccccc1 | > 100
Cc1ccc(-c2nsc(S(=O)(=O)c3ccc(C)cc3)n2)cc1 | > 100
O=C(Nc1nc(=O)[nH]s1)c1ccccc1 | > 100
Cc1ccc(-c2nsc(=O)[nH]2)cc1 | > 100

Continued, values first:

IC50 [µM] | SMILES
> 100 | c1ccc(Nc2nsc(Nc3ccccc3)n2)cc1
> 100 | CCNc1nsc(NCC)n1
6.5 | O=c1nc(NCc2ccccc2)s[nH]1
> 100 | CCOC(=O)Nc1nc(=O)n(C)s1
> 100 | CCOC(=O)Cn1c(-c2ccc(C)cc2)nsc1=O
> 100 | ClCc1nc(-c2ccccc2)ns1
> 100 | CCOC(=O)c1nc(-c2ccc(Cl)cc2)ns1
> 100 | Cn1sc(NCCO)nc1=O
> 100 | c1cc(Nc2nsc(Nc3ccncc3)n2)ccn1
> 100 | CCOC(=O)c1nc(-c2cc(C(C)(C)C)c(O)c(C(C)(C)C)c2)ns1
40 | Cn1sc(N)nc1=O
> 100 | CCOC(=O)c1nc(-c2ccccc2)ns1
20 | CCOC(=O)CNc1nc(=O)n(C)s1
> 100 | CCOC(=O)c1nsc(-c2ccccc2)n1
> 100 | CCOC(=O)c1nc(-c2ccc(OC)cc2)ns1
18 | CNc1nc(=O)n(C)s1
> 100 | CCOC(=O)c1nc(-c2ccc([N+](=O)[O-])cc2)ns1
15 | Cn1sc(NCCc2ccccc2)nc1=O
20 | Cn1sc(NCc2ccccc2)nc1=O
75 | Cn1sc(NCC(=O)O)nc1=O
> 100 | CC(=O)Nc1nsc(NC(C)=O)n1
